Several values for one entry are separate records, joined by “and”; a condition that tells them apart may be missing. Equal entries are not always repeated.
Settings: for mass density: Liquid, isochoric method; for surface tension liquid-gas: Ring tensiometer

CCCCCCCCCCCCCC[P+](CCCCCC)(CCCCCC)CCCCCC.O=S(=O)([N-]S(=O)(=O)C(F)(F)F)C(F)(F)F
Settings	mass density [kg/m3]
219.01 K, 845.2 kPa	1126.5
225.43 K, 10086 kPa	1125.99
225.43 K, 30200 kPa	1132.83
232.16 K, 19479 kPa	1125.46
233.47 K, 2869.4 kPa	1117.39
239.5 K, 10003 kPa	1116.86
239.51 K, 29986 kPa	1124.87
246.7 K, 20172 kPa	1116.37
247.35 K, 40212 kPa	1124.27
247.71 K, 1577.7 kPa	1107.13
254.34 K, 29850 kPa	1115.68
254.34 K, 29998 kPa	1115.78
254.36 K, 9848.1 kPa	1106.63
255.79 K, 51007 kPa	1123.62
262.3 K, 20026 kPa	1106.02
262.46 K, 40028 kPa	1115.06
263.55 K, 901 kPa	1095.02
268.29 K, 100 kPa	1090.79
270.61 K, 30010 kPa	1105.4
270.69 K, 9770.1 kPa	1094.49
270.95 K, 49862 kPa	1114.43
273.26 K, 100 kPa	1087.18
278.4 K, 100 kPa	1083.71
279.46 K, 39911 kPa	1104.75
280.16 K, 20417 kPa	1093.79
281.02 K, 1048.9 kPa	1082.63
283.3 K, 100 kPa	1079.84
288.55 K, 100 kPa	1076.14
288.56 K, 49907 kPa	1104.08
288.91 K, 10149 kPa	1082.04
288.92 K, 30030 kPa	1093.15
292.93 K, 100 kPa	1072.95
298 K, 39766 kPa	1092.49
298.17 K, 191.9 kPa	1068.8
298.17 K, 19640 kPa	1081.39
298.19 K, 100 kPa	1068.54
299.08 K, 1497.9 kPa	1069.18
303.24 K, 100 kPa	1065.2
307.5 K, 49581 kPa	1091.81
307.85 K, 10007 kPa	1068.57
308.01 K, 100 kPa	1061.72
308.08 K, 30024 kPa	1080.67
309.27 K, 1043.1 kPa	1061.06
313.17 K, 100 kPa	1057.68
318.03 K, 39710 kPa	1079.97
318.05 K, 100 kPa	1054.69
318.08 K, 19797 kPa	1067.86
318.16 K, 9063.9 kPa	1060.46
318.96 K, 1508.5 kPa	1054.33
323.08 K, 100 kPa	1051.01
328.31 K, 100 kPa	1047.34
328.73 K, 10024 kPa	1053.67
328.99 K, 49945 kPa	1079.21
329.13 K, 30007 kPa	1067.09
329.82 K, 733.9 kPa	1046.15
329.83 K, 19983 kPa	1059.65
333.03 K, 100 kPa	1044.1
338.51 K, 100 kPa	1040.38
339.97 K, 40003 kPa	1066.34
340.03 K, 20057 kPa	1052.9
340.84 K, 1346 kPa	1038.9
340.84 K, 10036 kPa	1045.42
341.21 K, 30097 kPa	1058.87
342.84 K, 100 kPa	1037.08
348.34 K, 100 kPa	1033.83
350.84 K, 50030 kPa	1065.58
353.13 K, 100 kPa	1030.2
353.15 K, 20345 kPa	1044.59
353.15 K, 31348 kPa	1052.01
353.15 K, 40207 kPa	1058.06
353.16 K, 11244 kPa	1038.09
358.18 K, 100 kPa	1026.93
364.28 K, 100 kPa	1022.11

Settings	surface tension liquid-gas
273.49 K	31.49 mN/m
273.52 K	31.51 mN/m
278.33 K	31.18 mN/m
278.52 K	31.21 mN/m
283.37 K	30.85 mN/m
283.39 K	30.94 mN/m
288.38 K	30.66 mN/m
288.5 K	30.56 mN/m
293.37 K	30.35 mN/m
298.24 K	30.13 mN/m
298.25 K	30.11 mN/m
303.15 K	29.82 mN/m
303.17 K	29.89 mN/m
308.18 K	29.56 mN/m
308.21 K	29.37 mN/m
313.21 K	29.15 mN/m
313.22 K	29.24 mN/m
318.2 K	29.03 mN/m
318.23 K	28.86 mN/m
323.19 K	28.56 mN/m
323.28 K	28.54 mN/m
328.11 K	28.34 mN/m
328.28 K	27.99 mN/m
333.15 K	27.89 mN/m and 27.98 mN/m
338.1 K	27.59 mN/m
338.13 K	27.94 mN/m
343 K	27.46 mN/m
343.05 K	27.3 mN/m
348 K	27.14 mN/m
348.34 K	26.92 mN/m
353.32 K	26.56 mN/m
353.33 K	26.79 mN/m
358.1 K	26.38 mN/m
358.49 K	26.45 mN/m
364.76 K	26.01 mN/m
364.97 K	25.93 mN/m

CCCCCCn1cc[n+](C)c1.F[P-](F)(F)(F)(F)F [1-hexyl-3-methylimidazolium hexafluorophosphate]
Settings	mass density [kg/m3]
220.78 K, 20693 kPa	1364.2
221.31 K, 2190 kPa	1355.99
226.3 K, 10334 kPa	1355.5
226.34 K, 30167 kPa	1363.64
232.2 K, 39852 kPa	1363.05
232.44 K, 20355 kPa	1354.89
232.75 K, 1468.4 kPa	1346.06
238.32 K, 29843 kPa	1354.3
238.38 K, 10065 kPa	1345.53
239.11 K, 50924 kPa	1362.36
244.53 K, 39522 kPa	1353.69
244.58 K, 20078 kPa	1345.49
244.91 K, 1121.9 kPa	1336.19
250.82 K, 49360 kPa	1353.07
251.03 K, 10204 kPa	1335.6
251.05 K, 29930 kPa	1344.61
257.33 K, 19488 kPa	1335.01
257.74 K, 40140 kPa	1344.21
258.25 K, 1630.4 kPa	1325.22
264.3 K, 29775 kPa	1334.34
264.31 K, 10326 kPa	1324.65
264.31 K, 29966 kPa	1334.29
264.82 K, 50312 kPa	1343.28
271.12 K, 19945 kPa	1324.01
271.72 K, 40378 kPa	1333.63
272.25 K, 1996.3 kPa	1314.31
277.88 K, 100 kPa	1308.85
278.37 K, 29980 kPa	1323.33
278.39 K, 10230 kPa	1313.74
278.81 K, 49975 kPa	1332.93
283.3 K, 100 kPa	1304.78
285.6 K, 39832 kPa	1322.66
285.88 K, 20217 kPa	1313.06
285.98 K, 1730.8 kPa	1302.58
288.37 K, 100 kPa	1300.82
293.01 K, 100 kPa	1296.84
293.33 K, 11116 kPa	1301.92
293.38 K, 30030 kPa	1312.37
294.3 K, 49916 kPa	1321.89
298.16 K, 127.6 kPa	1293.38
298.21 K, 100 kPa	1293.14
300.72 K, 20089 kPa	1301.27
301.06 K, 39951 kPa	1311.66
301.51 K, 940.4 kPa	1290.78
303 K, 100 kPa	1289.6
308.05 K, 100 kPa	1285.34
308.93 K, 10526 kPa	1290.11
308.93 K, 30141 kPa	1300.53
309.51 K, 50444 kPa	1310.89
313.17 K, 100 kPa	1280.96
316.34 K, 18783 kPa	1289.47
317.93 K, 100 kPa	1277.34
318.19 K, 41900 kPa	1299.68
318.48 K, 1643.7 kPa	1277.43
323.16 K, 100 kPa	1273.19
325.52 K, 47639 kPa	1299.1
325.7 K, 29844 kPa	1288.64
325.86 K, 10002 kPa	1276.79
328.09 K, 100 kPa	1269.64
333.28 K, 100 kPa	1265.48
334.93 K, 20139 kPa	1276.01
336.11 K, 41946 kPa	1287.71
336.59 K, 1430 kPa	1262.76
338.63 K, 100 kPa	1261.76
343.3 K, 100 kPa	1257.98
344.61 K, 1230.6 kPa	1256.88
345.06 K, 10024 kPa	1262.06
345.06 K, 30866 kPa	1275.14
347.93 K, 50753 kPa	1286.78
348.55 K, 100 kPa	1254.47
353.15 K, 18882 kPa	1261.36
353.15 K, 40148 kPa	1274.42
353.16 K, 10034 kPa	1256.16
353.61 K, 100 kPa	1250.75
358.19 K, 100 kPa	1247.22
364.46 K, 100 kPa	1242.36
